Data as given in US9796753B2, “N-substituted indenoisoquinolines and syntheses thereof” (Purdue Research Foundation, priority 2005, dated 2017).
Like-named read-outs stand apart in the source and are kept apart here.

What was measured:
Format in all cases: cell-based
melanoma UACC-62 = test: COMPARE screening (NCI human cancer cell line screen), cytotoxicity GI50
Procedure: (§1) Selected compounds were tested for antiproliferative activity in the National Cancer Institute's developmental therapeutics assay 60 cell line screen (NCI60). The cells were incubated with the tested compounds at 100, 10, 1, 0.1, and 0.01 μM concentrations for 48 h before treatment with sulforhodamine B dye. Optical densities were recorded, and their ratios relative to that of the control were plotted as percentage growth against the log 10 of the tested compound concentrations.

colon HCT-116 = test: as above
Procedure: as §1

renal SN12C = test: as above
Procedure: as §1

ovarian OVCAR-3 = test: as above
Procedure: as §1

prostate DU-145 = test: as above
Procedure: as §1

breast MDA-MB-435 = test: as above
[1] = test system: all human cancer cell lines successfully tested; test: NCI screen mean graph midpoint (MGM) for growth inhibition
Procedure: COMPARE screening. The compounds described herein were examined for antiproliferative activity against the human cancer cell lines in the National Cancer Institute screen (COMPARE screening), in which the activity of each compound was evaluated with approximately 55 different cancer cell lines of diverse tumor origins. […] Therefore, the MGM value represents an overall assessment of toxicity of the compound across numerous cell lines.
as §1
The cytotoxicities of the compounds to cultured cancer cells were measured in the National Cancer Institute's 60 cell line assay (a.k.a. NCI-60).

lung HOP-62 = test: COMPARE screening (NCI human cancer cell line screen), cytotoxicity GI50
Procedure: as §1

CNS SF-539 = test: as above
Procedure: as §1

[2] = Table 1, average GI50 of all cell lines tested (approximately 55), test range 10^−8 to 10^−4 molar
[3] = all human cancer cell lines successfully tested
[4] = Homo sapiens, UACC-62, read-out: cytotoxicity (GI50) melanoma UACC-62
[5] = Homo sapiens, HCT-116, read-out: cytotoxicity (GI50) colon HCT-116
[6] = Homo sapiens, SN12C, read-out: cytotoxicity (GI50) renal SN12C
[7] = Homo sapiens, OVCAR-3, read-out: cytotoxicity (GI50) ovarian OVCAR-3
[8] = Homo sapiens, CNSSF-539, read-out: cytotoxicity (GI50) CNS SF-539
[9] = Homo sapiens, DU-145, read-out: cytotoxicity (GI50) prostate DU-145
[10] = Homo sapiens, MDA-MB-435, read-out: cytotoxicity (GI50) breast MDA-MB-435

SMILES | GI50 (melanoma UACC-62) | GI50 (colon HCT-116) | GI50 (renal SN12C) | GI50 (ovarian OVCAR-3) | GI50 (prostate DU-145) | GI50 (breast MDA-MB-435) | MGM (mean GI50 across cell lines) [1, 2] | GI50 (lung HOP-62) | other results
CN(C)CCCn1c2c(c3ccccc3c1=O)C(=O)c1ccccc1-2 [Compound 5d] | 0.51 µM | 0.58 µM | 0.91 µM | 1.7 µM | 1.32 µM | 2.82 µM | – | – | –
CN(C)CCCn1c2c(c3ccc([N+](=O)[O-])cc3c1=O)C(=O)c1ccccc1-2 [Compound 5c] | 7.08 µM | 6.46 µM | 4.17 µM | 25.7 µM | – | > 100 µM | 9.77 µM | – | –
COc1cc2c3c(n(CCCN(CCCN(CCCn4c5c(c6ccccc6c4=O)C(=O)c4ccccc4-5)C(=O)OC(C)(C)C)C(=O)OC(C)(C)C)c(=O)c2cc1OC)-c1cc2c(cc1C3=O)OCO2 [Compound 16a, 1,3-{6-(3-tert-Butyloxycarbonylamino-1-propyl)-5,6-dihydro-2,3-dimethoxy-8,9-methylenedioxy-5,11-dioxo-11H-indeno[1,2-c]isoquinoline}-{5′,6′-dihydro-6′-[(3′-tert-butyloxycarbonylamino)-1′-propyl]-5′,11′-dioxo-11′H-indeno[1,2-c]isoquinoline}propane] | > 100 µM | > 100 µM | > 100 µM | – | – | > 100 µM | – | > 100 µM | MGM (mean GI50 across cell lines) [1, 3]: 68.0 µM
O=C1c2ccccc2-c2c1c1ccc([N+](=O)[O-])cc1c(=O)n2CCCBr [Compound 5bb, 6-(3-Bromopropyl)-5,6-dihydro-5,11-dioxo-3-nitro-11H-indeno[1,2-c]isoquinoline] | – | – | – | – | – | – | 40.0 µM | – | GI50 (melanoma UACC-62; [4]): > 100 µM; GI50 (colon HCT-116; [5]): 3.47 µM; GI50 (renal SN12C; [6]): > 100 µM; GI50 (ovarian OVCAR-3; [7]): > 100 µM; GI50 (CNS SF-539; [8]): > 100 µM; GI50 (prostate DU-145; [9]): > 100 µM; GI50 (breast MDA-MB-435; [10]): > 100 µM
COc1ccc2c(c1)C(=O)c1c-2n(CCCN2CCOCC2)c(=O)c2cc([N+](=O)[O-])ccc12 [Compound 5bj] | < 0.01 µM | < 0.01 µM | < 0.01 µM | < 0.01 µM | – | < 0.01 µM | – | < 0.01 µM | MGM (mean graph midpoint for growth inhibition) [1, 2]: 0.014 ± 0.001 µM
CC(C)(C)OC(=O)NCCCCCCCn1c2c(c3ccccc3c1=O)C(=O)c1ccccc1-2 [Compound 5af, 6-(7′-tert-BOC-Aminoheptyl)-5,6-dihydro-5,11-dioxo-11H-indeno[1,2-c]isoquinoline] | 20 µM | 17.4 µM | 74.1 µM | 33.9 µM | 31.6 µM | 81.3 µM | 30.9 µM | – | GI50 (CNS SF-539): 20.9 µM
O=C(O)C(F)(F)F.O=C(O)C(F)(F)F.O=C1c2ccccc2-c2c1c1ccccc1c(=O)n2CCNCCNCCn1c2c(c3ccccc3c1=O)C(=O)c1ccccc1-2 [Compound 14c, Bis-1,2-{(5,6-dihydro-5,11-diketo-11H-indeno[1,2-c]isoquinoline)-6-ethylamino}ethane Bis(trifluoroacetate)] | 0.331 µM | 0.029 µM | 0.178 µM | 1.66 µM | 0.182 µM | 1.66 µM | – | 0.032 µM | MGM (mean graph midpoint for growth inhibition) [1, 3]: 0.427 ± 0.01 µM
O=C1c2ccccc2-c2c1c1ccc([N+](=O)[O-])cc1c(=O)n2CCN1CCOCC1 [Compound 5i, 5,6-Dihydro-6-(2-morpholin-4-yl-1-ethyl)-3-nitro-5,11-dioxo-11H-indeno[1,2-c]isoquinoline] | – | – | – | – | – | – | 74.1 µM | – | GI50 (melanoma UACC-62; [4]): 83.2 µM; GI50 (colon HCT-116; [5]): > 100 µM; GI50 (lung HOP-62; Homo sapiens, HOP-62, read-out: cytotoxicity (GI50) lung HOP-62): 52.5 µM; GI50 (renal SN12C; [6]): 58.9 µM; GI50 (ovarian OVCAR-3; [7]): > 100 µM; GI50 (prostate DU-145; [9]): 61.7 µM; GI50 (breast MDA-MB-435; [10]): > 100 µM
COc1cc2c3c(n(CCCn4ccnc4)c(=O)c2cc1OC)-c1cc2c(cc1C3=O)OCO2.Cl [Compound 5l] | – | – | – | – | – | – | – | – | MGM (mean graph midpoint for growth inhibition) [1, 2]: 0.079 ± 0.023 µM
COc1cc2c3c(oc(=O)c2cc1OC)-c1ccccc1C3=O [Compound 4a, 2,3-dimethoxybenz[d]indeno[1,2-b]pyran-5,11-dione] | – | – | – | – | – | – | – | – | MGM (mean GI50 across cell lines) ([1]; Homo sapiens): ≥ 100 µM; GI50 (melanoma UACC-62; [4]): ≥ 100 µM; GI50 (colon HCT-116; [5]): ≥ 100 µM; GI50 (renal SN12C; [6]): ≥ 100 µM; GI50 (ovarian OVCAR-3; [7]): ≥ 100 µM; GI50 (CNS SF-539; [8]): ≥ 100 µM; GI50 (prostate DU-145; [9]): ≥ 100 µM; GI50 (breast MDA-MB-435; [10]): ≥ 100 µM
[N-]=[N+]=NCCCn1c2c(c3ccccc3c1=O)C(=O)c1ccccc1-2 [Compound 5bh] | 19.5 µM | 4.9 µM | 25.1 µM | 7.94 µM | 29.5 µM | 7.76 µM | 12.3 µM | 7.59 µM | –
O=C1c2ccccc2-c2c1c1ccccc1c(=O)n2CCCn1ccnc1 [Compound 5g] | 0.79 µM | 1.41 µM | 1.66 µM | 1.66 µM | 1.41 µM | – | 1.86 µM | – | GI50 (CNS SF-539): 2.34 µM
Cl.O=C1c2ccccc2-c2c1c1ccccc1c(=O)n2CCCCNCCCn1c2c(c3ccccc3c1=O)C(=O)c1ccccc1-2 [Compound 14b, Bis{(5,6-dihydro-5,11-diketo-11H-indeno[1,2-c]isoquinoline)}-(6-propyl,6′-butyl)amine Hydrochloride] | 0.513 µM | 0.056 µM | 0.132 µM | 0.372 µM | 0.288 µM | 0.562 µM | – | 0.028 µM | MGM (mean graph midpoint for growth inhibition) [1, 3]: 0.357 ± 0.087 µM
COc1cc2c3c(n(CCCN(C)C)c(=O)c2cc1OC)-c1ccccc1C3=O [Compound 5a] | 6.61 µM | 2.45 µM | 11 µM | 5.89 µM | 4.47 µM | 7.08 µM | 6.17 µM | – | GI50 (CNS SF-539): 6.17 µM
O=C(O)C(F)(F)F.O=C(O)C(F)(F)F.O=C1c2ccccc2-c2c1c1ccccc1c(=O)n2CCCNCCNCCCn1c2c(c3ccccc3c1=O)C(=O)c1ccccc1-2 [Compound 14e, Bis-1,2-{(5,6-dihydro-5,11-diketo-11H-indeno[1,2-c]isoquinoline)-6-propylamino}ethane Bis(trifluoroacetate)] | 0.052 µM | < 0.01 µM | < 0.01 µM | 1.02 µM | < 0.01 µM | 0.933 µM | – | < 0.01 µM | MGM (mean graph midpoint for growth inhibition) [1, 3]: 0.152 ± 0.062 µM
CN(CCCn1c2c(c3ccccc3c1=O)C(=O)c1ccccc1-2)CCCn1c2c(c3ccccc3c1=O)C(=O)c1ccccc1-2 [Compound 12d, Bis{(5,6-dihydro-5,11-diketo-11H-indeno[1,2-c]isoquinoline)-6-propyl}methylamine] | – | – | – | – | – | – | – | – | MGM (mean graph midpoint for growth inhibition) [1, 3]: 0.934 ± 0.476 µM; GI50 (melanoma UACC-62; melanoma UACC-62, concentration corresponding to 50% growth inhibition, read-out: cytotoxicity (GI50 in μM) melanoma UACC-62): 2 µM; GI50 (renal SN12C; renal SN12C, concentration corresponding to 50% growth inhibition, read-out: cytotoxicity (GI50 in μM) renal SN12C): 0.589 µM; GI50 (ovarian OVCAR-3; ovarian OVCAR-3, concentration corresponding to 50% growth inhibition, read-out: cytotoxicity (GI50 in μM) ovarian OVCAR-3): 1.2 µM; GI50 (CNS SF-539; CNS SF-539, concentration corresponding to 50% growth inhibition, read-out: cytotoxicity (GI50 in μM) CNS SF-539): 1.12 µM; GI50 (breast MDA-MB-435; breast MDA-MB-435, concentration corresponding to 50% growth inhibition, read-out: cytotoxicity (GI50 in μM) breast MDA-MB-435): 1.55 µM
